From ChEMBL document CHEMBL3045923, “Using a selectivity index to evaluate logarithmic spraying in grass seed crops” (Pest Manag Sci, 2009) come the findings set out here.

Molecules are shown by their SMILES.

The nature of data set [1]: Selectivity index, ratio of ED10 for Festuca rubra L. to ED90 for Poa pratensis subsp. Pratensis.
For data set [2], the system named is Festuca rubra. Put plainly: Toxicity against Festuca rubra applied using logarithmic sprayer. It is filed as organism-based. The note with it: in vivo.
The test system of data set [3] is Poa pratensis subsp. pratensis. Put plainly: Herbicidal activity against Poa pratensis subsp. pratensis applied using logarithmic sprayer. The class given is functional.
Data set [4] concerns Festuca rubra. In words: Toxicity against Festuca rubra applied applied during spring season using logarithmic sprayer. It is filed as organism-based. To be noted: in vivo.
The subject of data set [5] is Poa pratensis subsp. pratensis. In words: Herbicidal activity against Poa pratensis subsp. pratensis applied during spring season using logarithmic sprayer. It is filed as functional.
A short description of data set [6]: Ratio of ED50 for Festuca rubra L. to ED50 for Poa pratensis subsp. Pratensis.
The nature of data set [7]: Ratio of ED50 for Festuca pratensis to ED50 for Poa pratensis subsp. Pratensis.
Data set [8] is described as follows: Ratio of ED50 for Festuca arundinacea to ED50 for Poa pratensis subsp. Pratensis.
Data set [9] can be described thus: Ratio of ED50 for Lolium perenne to ED50 for Poa pratensis subsp. Pratensis.

Take `C#CCOC(=O)[C@@H](C)Oc1ccc(Oc2ncc(Cl)cc2F)cc1` [CLODINAFOP PROPARGYL]: the Selectivity Index in [1] is more than 1. Besides, the ED50 was found to be 0.923 kg/ha in the data set with Festuca rubra [2] and 0.192 kg/ha in data set [3].

As to `CCC(CC)Nc1c([N+](=O)[O-])cc(C)c(C)c1[N+](=O)[O-]` [PENDIMETHALIN], the ED50 with Festuca rubra [2] came to 3.531 L/ha; in [3] it was 1.761 L/ha.

As for `COc1nc(C)nc(NC(=O)NS(=O)(=O)c2cc(I)ccc2C(=O)O)n1` [IODOSULFURON], the values for the ED50 (with Festuca rubra [2]; in data set [3]) were 0.367 kg/ha and 0.184 kg/ha, respectively.

Take `COc1cc(OC)nc(NC(=O)NS(=O)(=O)c2nc(C(F)(F)F)ccc2C(=O)O)n1` [FLUPYRSULFURON]: the ED50 in the data set on Festuca rubra [4] was found to be 0.04 kg/ha; in the data set with Festuca rubra [2] it was 0.024 kg/ha; in data set [5], 0.019 kg/ha; in [3], 0.017 kg/ha. Besides, in data set [6], the Ratio ED50 is more than 2.

`CCCN(CCC)C(=O)SCc1ccccc1` [PROSULFOCARB] registered an ED50 in data set [3] of 2.337 kg/ha.

Take `CCOC(=O)[C@@H](C)Oc1ccc(Oc2nc3ccc(Cl)cc3o2)cc1` [FENOXAPROP-P-ETHYL]: the Ratio ED50 in data set [7], in [8] and in [6] was more than 2 each time. For the same compound, the ED50 turned out to be 1.137 kg/ha in the data set with Festuca rubra [2] and 0.408 kg/ha in data set [3]. In data set [3], this compound registered an ED90 of 0.68 kg/ha.

Regarding `CCS(=O)(=O)c1nc2ccccn2c1S(=O)(=O)NC(=O)Nc1nc(OC)cc(OC)n1` [SULFOSULFURON], the ED50 in the data set on Festuca rubra [2] was found to be 0.007 kg/ha; in [3], 0.014 kg/ha. In data set [9], the Ratio ED50 is more than 1.

In turn, `O=C(O)CNCP(=O)(O)O` [GLYPHOSATE] gave an ED50 with Festuca rubra [2] of 0.263 L/ha.
